From US12077495B2 (priority 2018, dated 2024) come the findings set out here.

Where two headings read alike, the source gives them in different places.

The target of one assay is T1, GABAB receptor (Rattus norvegicus, UniProt Q9Z0U4).
T1 construct: using crude synaptic membranes prepared from rat cortex; from tissue; host or cells: rat cortex, crude synaptic membranes
Briefly: 3H-GABA binding assay for GABAB, rat cortex membranes. As for the experimental part:
Following incubation by rapid filtration through GF/C unifilters (PerkinElmer, Boston, MA, USA), using a 96-well Packard cell-harvester (PerkinElmer) and three fast washes with ice-cold binding buffer, microscint scintillation fluid (PerkinElmer) was added to the dried filters, and the amount of filter-bound radioactivity was quantified in a Packard TopCount microplate scintillation counter (PerkinElmer). […] The binding reactions were terminated by rapid filtration through GF/C filters (Whatman), soaked in 0.1% polyethylene imine, using a Brandell 48-well harvester and rapid washing with ice-cold binding buffer. […] Data are presented as % specific binding (of control), and IC50 or Ki values calculated by means of non-linear regression curve-fitting and the Cheng-Prusoff equation, respectively.

The target of assay [1] is T2, specific GHB sites (high-affinity GHB binding site) (Rattus norvegicus, UniProt P11275).
T2 construct: using crude synaptic membranes prepared from rat cortex; from tissue; host or cells: rat cortex, crude synaptic membranes
T2 sequence (P11275 whole entry): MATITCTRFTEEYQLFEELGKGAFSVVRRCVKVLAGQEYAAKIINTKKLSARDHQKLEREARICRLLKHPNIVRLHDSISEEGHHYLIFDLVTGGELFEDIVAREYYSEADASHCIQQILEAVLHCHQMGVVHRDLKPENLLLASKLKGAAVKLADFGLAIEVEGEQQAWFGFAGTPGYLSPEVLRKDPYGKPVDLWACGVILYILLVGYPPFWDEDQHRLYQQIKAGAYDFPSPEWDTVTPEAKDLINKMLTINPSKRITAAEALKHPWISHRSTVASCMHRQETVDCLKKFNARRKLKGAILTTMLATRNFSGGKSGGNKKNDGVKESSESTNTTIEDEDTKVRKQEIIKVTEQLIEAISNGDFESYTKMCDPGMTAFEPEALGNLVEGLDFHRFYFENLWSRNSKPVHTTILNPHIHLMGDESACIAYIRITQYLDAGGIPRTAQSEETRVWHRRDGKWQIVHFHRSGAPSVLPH
Briefly: biochemical. To be noted: pH 6.

Assay [2] deals with T2, specific GHB sites (high-affinity GHB binding site). Briefly: biochemical.
Assay [3] has as its system photothrombotic focal ischemia in C57BL/6J mice. Briefly: Photothrombotic mouse model of focal ischemia, infarct volume. To be noted: day 7; for infarct size: saline 5.55. Format: in vivo. As for the experimental part: (§1) All procedures were performed in accordance with the guidelines on the care and use of laboratory animals set out by the University of Otago, Animal Research Committee and the Guide for Care and Use of Laboratory Animals (NIH Publication No. 85-23, 1996). All in vivo studies were approved by the University of Otago Animal Ethics Committee and are reported according to the ARRIVE (Animal Research: Reporting In Vivo Experiments) guidelines. The photochemical cortical lesion model resembles situations of acute brain injury related clinically to stroke and traumatic brain injury (TBI). Focal ischemia was induced by photothrombosis in male C57BL/6J mice (8-10 weeks) weighing ˜23-30 g as previously described (Clarkson et al., 2010). Under anesthesia with isoflurane (2% to 2.5% in O2) mice were placed in a stereotactic apparatus, the skull exposed through a midline incision, cleared of connective tissue and dried. A cold light source (KL1500 LCD, Zeiss, Auckland, New Zealand) attached to a 40× objective providing a 2-mm diameter illumination was positioned 1.5 mm lateral from bregma. Then, 0.2 ml of Rose Bengal (Sigma-Aldrich, Auckland, New Zealand; 10 mg/ml in normal saline) was administered i.p. After 5 min, the brain was illuminated through the exposed intact skull for 15 min, while keeping body temperature at 37.0±0.3° C. degrees using a heating pad (Harvard apparatus, Holliston, MA, USA). The skin was glued and animals left in a cage placed on a heating pad during the wake-up phase. Mice were housed under a 12-hr light/dark cycle with ad libitum access to food and water. Further, the mice were monitored and weighed on a daily basis.
(§2) For in vivo studies, all compounds were dissolved in a mixture of sterile saline and H2O to obtain isotonicity (0.9%) and administered as 10 mg/ml and 10 μl of solution per gram mouse body weight. The injection of compound (i.p.) was performed 30 min, 3, 6 or 12 hrs after induction of the photothrombotic stroke. The vehicle groups received a corresponding volume of saline (0.9%) at the same time points (30 min, 3, 6 or 12 hrs).
For quantification of the infarcted area, animals were perfused with saline and then with 4% paraformaldehyde (PFA) and the brain dissected out and submerged in 4% PFA for post-fixing overnight. Then the brains were moved to 30% sucrose solution and kept at 4° C. until processing. Brains were cut in 30 μm sections, free-floating in anti-freeze media. Sections were mounted, stained for cresyl violet and the infarct volumes determined by measuring every 6th section through the entire infarct as described in Lie et al (2017). All analyses were performed by an observer blinded to the treatment groups. Brains from the pMCAO studies were flash-frozen in CO2 (gas) and processed into six parallel series of sections (30 μm). Separate series were collected on glass slides and used for infarct size analysis or in Eppendorf tubes and used for qPCR. The glass slides were stored at −80° C. until further processing, and then Cresyl-Violet stained and quantified as described for the photothrombotic photochemical method.

For assay [4] the test system is unchanged. Briefly: Photothrombotic model, behavioural assessment (grid-walking and cylinder tasks). Format: in vivo. Particulars: day 7. As to the method: as §1, §2
Forelimb motor performance was determined using the cylinder and grid-walking tasks as previously described (Clarkson et al., 2010). All animals were tested both in a pre- and post-testing session, 1 week before and 3 days or 7 days after the ischemic insult, respectively. Observers who scored the behaviour were blinded to the treatment groups.

Assay [5] deals with wild-type and GABAB receptor knock-out mice. Briefly: Temperature recording (hypothermia) in mice. Format: in vivo. Particulars: 750 mg/kg i.p., 2 hrs. As to the method: Mice were pre-treated with saline injections (0.9% saline) i.p. for 4 days prior to the experiment to minimize stress on the day of the experiment. Experiments were conducted in a quiet room, in which mice were left undisturbed for at least two hrs prior to the experiment. After the i.p. injections, mice were left in their home cages for two hrs, had core body temperature recorded, and were then euthanized. The core body temperature was measured rectally by a thermometer (model DM 852; ELLAB Instruments; Copenhagen, Denmark) via a lubricated thermistor probe (model PRA-22002-A, 2.2 mm diameter; ELLAB Instruments). Mice were held at the base of the tail and measured until a stable temperature measurement was obtained.
By contrast, compound A had no effect on hypothermia in either wild-type or knock-out mice.

Assay [6] deals with GABAB(1) receptor knock-out mice. Briefly: Glucose metabolism study, 14C-2-deoxyglucose autoradiography. Format: in vivo. Particulars: 200 mg/kg i.p., after 45 min.
A further assay deals with T3, CAMK2A (Rattus norvegicus, UniProt P11275).
T3 construct: host or cells: HEK293T
T3 sequence (P11275 whole entry): as above
Briefly: biochemical. Format: binding. Particulars: whole cell lysates of CAMK2A-transfected HEK293T cells. As for the experimental part:
Cells were transfected with rat CAMK2A (Origene construct RR201121) or rat CAMK2B (Origene construct RR200520) using PolyFect (Qiagen, West Sussex, UK) according to the manufacturer's protocol. Whole cell homogenates were prepared 48 hr post-transfection by washing the cells with ice-cold 1×PBS and harvesting by scraping. Cells were collected and centrifuged for 10 min at 1000×g. Cell pellets were resuspended in ice-cold 1×PBS and homogenized using 2×1 mm zirkonium beads in a bullet blender for 20 s at max speed (NextAdvance, NY, USA). Homogenates were cleared by centrifugation (10 min, 4° C., 14.000×g). Protein concentration was determined using the Bradford protein assay. 150-200 μg protein was incubated with 5 nM ^3H-A and test compound in 1 ml total volume for 1 hr at 0-4° C. […] Proteins were then precipitated by addition of ice-cold acetone (4× of the assay volume), vortexing and incubation at −20° C. for 1 hr. Proteins were filtrated rapidly through GF/C unifilters (Whatman) and washed. The dried filters were added scintillation liquid and radioactivity measured on a Tricarb 2100 Scintillation counter (Packard).
A) Principle of photoaffinity labelling workflow. […] After introduction of biotin through a Staudinger-Bertozzi ligation to EZ-Link™ Phosphine-PEG3-Biotin (ThermoFisher Scientific), the biotin-labelled proteins were affinity-purified and subjected to LC-MS/MS analysis. […] C)^3H-A binding to cortical membranes from CAMK2A and CAMK2B knock-out mouse brains.
Human/rat CAMK2A expressed in HEK cells was assayed in an in-house established ^3H-A filtration binding assay performed on whole cell lysates of CAMK2A-transfected HEK293T cells.

[7] abbreviates: read-out: Ki, inhibition of 3H-B binding.
Where [8] appears, read: 50 mg/kg i.p. 3 hrs after injury.
Setting [9] is: FIG. 1D, read-out: Ki, competition in the 3H-A binding assay.

T1 sequence (Q9Z0U4 17-960 limits assumed): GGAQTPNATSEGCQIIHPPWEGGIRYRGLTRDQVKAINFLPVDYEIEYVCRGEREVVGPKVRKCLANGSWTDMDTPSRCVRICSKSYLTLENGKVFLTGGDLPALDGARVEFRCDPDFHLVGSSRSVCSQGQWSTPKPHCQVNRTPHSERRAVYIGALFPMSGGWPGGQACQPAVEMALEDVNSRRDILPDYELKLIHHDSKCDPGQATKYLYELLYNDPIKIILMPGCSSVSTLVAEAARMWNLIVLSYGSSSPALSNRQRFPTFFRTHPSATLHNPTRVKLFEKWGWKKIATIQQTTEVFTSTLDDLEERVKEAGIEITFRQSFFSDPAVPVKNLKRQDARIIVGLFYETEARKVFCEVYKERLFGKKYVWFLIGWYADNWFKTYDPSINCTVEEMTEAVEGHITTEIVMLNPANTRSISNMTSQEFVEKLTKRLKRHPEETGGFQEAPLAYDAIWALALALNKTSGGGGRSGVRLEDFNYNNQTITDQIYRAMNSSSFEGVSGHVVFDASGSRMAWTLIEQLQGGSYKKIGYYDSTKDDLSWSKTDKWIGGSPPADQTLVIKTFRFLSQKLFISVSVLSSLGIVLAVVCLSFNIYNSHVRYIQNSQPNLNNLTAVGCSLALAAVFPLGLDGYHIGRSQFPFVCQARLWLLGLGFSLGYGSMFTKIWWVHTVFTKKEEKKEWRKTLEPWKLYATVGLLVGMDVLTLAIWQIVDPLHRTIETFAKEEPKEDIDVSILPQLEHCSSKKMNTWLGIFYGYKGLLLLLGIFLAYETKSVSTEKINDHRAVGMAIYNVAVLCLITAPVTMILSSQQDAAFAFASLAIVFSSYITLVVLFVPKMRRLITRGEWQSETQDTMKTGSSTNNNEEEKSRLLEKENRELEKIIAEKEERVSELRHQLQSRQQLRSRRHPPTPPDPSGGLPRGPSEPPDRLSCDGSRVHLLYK
T1 sequence (O88871 41-940 partner): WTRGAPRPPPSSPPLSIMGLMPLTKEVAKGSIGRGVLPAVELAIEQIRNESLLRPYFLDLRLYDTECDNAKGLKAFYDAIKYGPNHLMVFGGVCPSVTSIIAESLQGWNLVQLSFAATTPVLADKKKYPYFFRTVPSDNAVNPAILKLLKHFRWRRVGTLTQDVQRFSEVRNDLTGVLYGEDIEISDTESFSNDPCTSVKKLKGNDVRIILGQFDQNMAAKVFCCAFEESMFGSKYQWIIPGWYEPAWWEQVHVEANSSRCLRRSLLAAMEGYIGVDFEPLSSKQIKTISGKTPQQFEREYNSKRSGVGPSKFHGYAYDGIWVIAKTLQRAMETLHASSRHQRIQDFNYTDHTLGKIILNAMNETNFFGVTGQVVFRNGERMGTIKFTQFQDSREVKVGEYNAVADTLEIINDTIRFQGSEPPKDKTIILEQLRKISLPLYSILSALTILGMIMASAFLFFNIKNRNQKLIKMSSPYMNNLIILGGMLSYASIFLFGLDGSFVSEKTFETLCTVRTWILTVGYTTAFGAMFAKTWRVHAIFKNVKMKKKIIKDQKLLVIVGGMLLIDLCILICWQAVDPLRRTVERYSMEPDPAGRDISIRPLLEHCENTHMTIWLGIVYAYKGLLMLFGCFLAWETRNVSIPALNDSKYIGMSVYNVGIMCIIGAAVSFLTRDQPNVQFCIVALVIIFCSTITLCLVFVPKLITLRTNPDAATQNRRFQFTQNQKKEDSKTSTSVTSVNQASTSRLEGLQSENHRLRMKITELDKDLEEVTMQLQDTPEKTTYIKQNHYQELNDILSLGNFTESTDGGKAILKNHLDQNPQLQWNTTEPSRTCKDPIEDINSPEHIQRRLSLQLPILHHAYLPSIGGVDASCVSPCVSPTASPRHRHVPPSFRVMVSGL

Turning to `O=C(O)CCCO` [GHB, γ-hydroxybutyric acid], the “inhibition of 3H-GABA binding to GABAB receptor” value on GABAB receptor (at both 0.1 mM and 1 mM) was “could inhibit”.

In the case of `O=C(O)Cc1cc(O)ccc1Nc1c(Cl)cccc1Cl` [C, 2-((2,6-dichlorophenyl)amino)-5-hydroxyphenylacetic acid], at GABAB receptor (at a concentration of 1 mM), the “inhibition of 3H-GABA binding to GABAB receptor” value is on record as “limited inhibition”.

Consider `O=C(O)/C=C1\CCCc2cc(I)ccc2C1O` (stereo not drawn) [Compound 5, (E)-2-(2-iodo-5-hydroxy-5,7,8,9-tetrahydro-6H-benzo[7]annulen-6-ylidene)acetic acid], for which the Ki in assay [1] (setting [7]) is 53 nM.

Take `O=C(O)/C=C1\CCCc2cc(F)ccc2C1O` (stereo not drawn) [Compound 6, (E)-2-(2-fluoro-5-hydroxy-5,7,8,9-tetrahydro-6H-benzo[7]annulen-6-ylidene)acetic acid]: in assay [1], the affinity corresponds to a Ki of 108 nM.

In the case of `Cc1ccc2c(c1)CCC/C(=C\C(=O)O)C2O` (stereo not drawn) [Compound 7, (E)-2-(2-methyl-5-hydroxy-5,7,8,9-tetrahydro-6H-benzo[7]annulen-6-ylidene)acetic acid], the Ki in assay [1] was 325 nM.

As to `O=C(O)/C=C1\CCCc2cc(/C=C/c3ccccc3)ccc2C1O` (stereo not drawn) [Compound 3, (E)-2-(5-hydroxy-2-((E)-styryl)-5,7,8,9-tetrahydro-6H-benzo[7]annulen-6-ylidene)acetic acid], the Ki was determined as 87 nM in assay [2] (pH 7.4, read-out: Ki, 3H-A binding assay); 50 nM in assay [2] (read-out: Ki, inhibition of 3H-A binding, pH 6); 30 nM in assay [1].

Take `O=C(O)/C=C1\CCCc2c(-c3ccccc3)cccc2C1O` (stereo not drawn) [Compound 9, (E)-2-(1-phenyl-5-hydroxy-5,7,8,9-tetrahydro-6H-benzo[7]annulen-6-ylidene)acetic acid]: the Ki in assay [1] (setting [7]) worked out at 382 nM.

In the case of `O=C(O)/C=C1\CCCc2cc(-c3ccccc3)ccc2C1O` (stereo not drawn) [Compound 2, (E)-2-(5-hydroxy-2-phenyl-5,7,8,9-tetrahydro-6H-benzo[7]annulen-6-ylidene)acetic acid], the “decrease of infarct size vs saline” value in assay [3] (setting [8]) is given as 39%; in assay [3] (175 mg/kg i.p. 3 or 6 hrs after injury), 38-46%. For the same compound, the infarct size in assay [3] (setting [8]) was 3.4 mm^3; in assay [3] (175 mg/kg i.p. 3 hrs after injury) it was 3.44 mm^3; in assay [3] (175 mg/kg i.p. 6 hrs after injury), 2.98 mm^3. Besides, the “motor performance in both asymmetry tests” value in assay [4] (50 mg/kg 3 hrs after injury) is on record as “significantly improved”. In addition, in assay [4] (175 mg/kg, 6 hr group), the “number of foot faults (grid-walking)” value is listed as “significantly reduced”. In assay [4] (175 mg/kg, both 3 and 6 hrs), the “time spent on affected paw (cylinder task)” value was “significantly reduced”.

With `O=C(O)/C=C1\CCCc2ccc(Br)cc2C1O` (stereo not drawn) [Compound 10, (E)-2-(3-bromo-5-hydroxy-5,7,8,9-tetrahydro-6H-benzo[7]annulen-6-ylidene)acetic acid], the Ki in assay [1] (setting [7]) was 9690 nM.

For the compound `O=C(O)Cc1ccccc1Nc1c(Cl)cc(O)cc1Cl` [4′-hydroxydiclofenac, reference compound], the Ki in assay [2] (setting [9]) is 16000 nM.

In the case of `O=C1CCCO1` [GBL, γ-butyrolactone], the “effect on body temperature (hypothermia)” value in assay [5] is reported as “strong decreased in body temperature”. Also, the “cerebral metabolic rate of glucose, hippocampus” value in assay [6] (saline 9.74) worked out at 6.45 nCi/ROI/min. For the same compound, the “cerebral metabolic rate of glucose, frontal cortex” value in assay [6] (saline 10.46) was determined as 6.78 nCi/ROI/min.

For the compound `O=C(O)/C=C1\CCCc2cc(Cl)ccc2C1O` (stereo not drawn) [Compound 4, (E)-2-(2-chloro-5-hydroxy-5,7,8,9-tetrahydro-6H-benzo[7]annulen-6-ylidene)acetic acid], the Ki in assay [1] (setting [7]) amounted to 52 nM.

`O=C(O)Cc1ccccc1Nc1c(Cl)cccc1Cl` [diclofenac, reference compound]: the Ki in assay [2] (setting [9]) came out at 4700 nM.

On to `O=C(O)/C=C1\CCCc2c(Br)cccc2C1O` (stereo not drawn) [Compound 8, (E)-2-(1-bromo-5-hydroxy-5,7,8,9-tetrahydro-6H-benzo[7]annulen-6-ylidene)acetic acid], for which the inhibition constant (Ki) in assay [1] is 225 nM.

With `O=C(O)/C=C1\CCCc2ccccc2C1O` (stereo not drawn) [B, (E,RS)-6,7,8,9-tetrahydro-5-hydroxy-5H-benzocyclohept-6-ylidene acetic acid, reference compound], the figures for the Ki (on CAMK2A; in assay [1]) were 3710 nM and 440 nM, respectively.
